Laboratory results reported in ChEMBL document CHEMBL1201862, “PubChem BioAssay data set” (2004).
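Grown in 96-well plates, cells were treated for 48 hours with each compound at five concentrations. Insufficient inhibition: endpoint recorded as highest concentration tested. GI50 marks 50% less growth.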 Active and inactive are the calls of the source. Cut-off read from the data, not from the text of the source: active = GI50 up to about 1.1 µM and inactive = higher.

How the values were obtained:
Test in all cases: NCI anticancer screen, dose series, 48 h
SK-OV-3 = system: SK-OV-3
NCI-H522 = system: NCI-H522
K562 = system: K562
DLD-1 = system: DLD-1
SK-MEL-2 = system: SK-MEL-2
KM-20L2 = system: KM-20L2
SK-MEL-5 = system: SK-MEL-5
SNB-75 = system: SNB-75
ACHN = system: ACHN
U-251 = system: U-251
HOP-92 = system: HOP-92
KM12 = system: KM12
MOLT-4 = system: MOLT-4
SNB-78 = system: SNB-78
NCI-H226 = system: NCI-H226
NCI-H23 = system: NCI-H23
UACC-62 = system: UACC-62
SN12C = system: SN12C
OVCAR-5 = system: OVCAR-5
Malme-3M = system: Malme-3M
SW-620 = system: SW-620
SR = system: SR
OVCAR-4 = system: OVCAR-4
CCRF-CEM = system: CCRF-CEM
SNB-19 = system: SNB-19
SF-539 = system: SF-539
TK-10 = system: TK-10
HOP-18 = system: HOP-18
HCC 2998 = system: HCC 2998
M14 = system: M14
A549 = system: A549
UACC-257 = system: UACC-257
IGROV-1 = system: IGROV-1
A498 = system: A498
SK-MEL-28 = system: SK-MEL-28
UO-31 = system: UO-31
EKVX = system: EKVX
NCI-H460 = system: NCI-H460
RPMI-8226 = system: RPMI-8226
786-0 = system: 786-0
OVCAR-3 = system: OVCAR-3
HOP-62 = system: HOP-62
DMS-273 = system: DMS-273
HCT-15 = system: HCT-15
HL-60 = system: HL-60
SF-268 = system: SF-268
XF498 = system: XF498
LOX IMVI = system: LOX IMVI
SF-295 = system: SF-295
OVCAR-8 = system: OVCAR-8
COLO 205 = system: COLO 205
HT-29 = system: HT-29
RXF 393 = system: RXF 393
HCT-116 = system: HCT-116
LXFL 529 = system: LXFL 529
CAKI-1 = system: CAKI-1
M19-MEL = system: M19-MEL
DMS-114 = system: DMS-114

With `COc1ccc(C2=C[C@]3(O)CCCN3C[C@@H]2c2ccc(OC)c(OC)c2)cc1` the GI50 (SK-OV-3) was < 0.0001 µM (active), the GI50 (NCI-H522) was < 0.0001 µM (active) and the GI50 (K562) was < 0.0001 µM (active). For the same compound, the GI50 (DLD-1) was < 0.0001 µM (active), the GI50 (SK-MEL-2) was < 0.0001 µM (active) and the GI50 (KM-20L2) was < 0.0001 µM (active). The GI50 (SK-MEL-5) was < 0.0001 µM (active), the GI50 (SNB-75) was < 0.0001 µM (active) and the GI50 (ACHN) was < 0.0001 µM (active). For the same compound, the GI50 (U-251) was < 0.0001 µM (active), the GI50 (HOP-92) was < 0.0001 µM (active) and the GI50 (KM12) was < 0.0001 µM (active). For the same compound, the GI50 (MOLT-4) was < 0.0001 µM (active), the GI50 (SNB-78) was < 0.0001 µM (active) and the GI50 (NCI-H226) was < 0.0001 µM (active). For the same compound, the GI50 (NCI-H23) was < 0.0001 µM (active), the GI50 (UACC-62) was < 0.0001 µM (active) and the GI50 (SN12C) was < 0.0001 µM (active). The GI50 (OVCAR-5) was < 0.0001 µM (active), the GI50 (Malme-3M) was < 0.0001 µM (active) and the GI50 (SW-620) was < 0.0001 µM (active). The GI50 (SR) was < 0.0001 µM (active), the GI50 (OVCAR-4) was > 0.01 µM (active) and the GI50 (CCRF-CEM) was < 0.0001 µM (active). The GI50 (SNB-19) was < 0.0001 µM (active), the GI50 (SF-539) was < 0.0001 µM (active) and the GI50 (TK-10) was < 0.0001 µM (active). For the same compound, the GI50 (HOP-18) was < 0.0001 µM (active), the GI50 (HCC 2998) was > 0.01 µM (active) and the GI50 (M14) was < 0.0001 µM (active). For the same compound, the GI50 (A549) was < 0.0001 µM (active), the GI50 (UACC-257) was < 0.0001 µM (active) and the GI50 (IGROV-1) was < 0.0001 µM (active). For the same compound, the GI50 (A498) was < 0.0001 µM (active), the GI50 (SK-MEL-28) was < 0.0001 µM (active) and the GI50 (UO-31) was < 0.0001 µM (active). For the same compound, the GI50 (EKVX) was < 0.0001 µM (active), the GI50 (NCI-H460) was < 0.0001 µM (active) and the GI50 (RPMI-8226) was > 0.01 µM (active). The GI50 (786-0) was < 0.0001 µM (active), the GI50 (OVCAR-3) was < 0.0001 µM (active) and the GI50 (HOP-62) was < 0.0001 µM (active). For the same compound, the GI50 (DMS-273) was < 0.0001 µM (active), the GI50 (HCT-15) was under 0.0001 µM and the GI50 (HL-60) was < 0.0001 µM (active). For the same compound, the GI50 (SF-268) was < 0.0001 µM (active), the GI50 (XF498) was < 0.0001 µM (active) and the GI50 (LOX IMVI) was < 0.0001 µM (active). The GI50 (SF-295) was < 0.0001 µM (active), the GI50 (OVCAR-8) was < 0.0001 µM (active) and the GI50 (COLO 205) was < 0.0001 µM (active). The GI50 (HT-29) was < 0.0001 µM (active), the GI50 (RXF 393) was > 0.01 µM (active) and the GI50 (HCT-116) was < 0.0001 µM (active). For the same compound, the GI50 (LXFL 529) was < 0.0001 µM (active) and the GI50 (CAKI-1) was < 0.0001 µM (active).

In the case of `Cc1cc(NS(=O)(=O)c2ccc(Nc3c4ccccc4nc4c(C(=O)Nc5ccc(S(=O)(=O)N=C(N)N)cc5)ccc(Cl)c34)cc2)no1`, the GI50 (SK-OV-3) is reported as 31.7 µM (inactive), the GI50 (NCI-H522) is reported as 16 µM (inactive) and the GI50 (K562) is reported as 22.1 µM (inactive). For the same compound, the GI50 (DLD-1) was 47.3 µM (inactive), the GI50 (KM-20L2) was 98.4 µM (inactive) and the GI50 (SK-MEL-5) was > 100 µM (inactive). The GI50 (SNB-75) was 25.9 µM (inactive), the GI50 (ACHN) was 60.5 µM (inactive) and the GI50 (U-251) was 28.6 µM (inactive). For the same compound, the GI50 (KM12) was 87.9 µM (inactive), the GI50 (MOLT-4) was 24.7 µM (inactive) and the GI50 (SNB-78) was 23.4 µM (inactive). The GI50 (M19-MEL) was 39.8 µM (inactive), the GI50 (NCI-H226) was 28.2 µM (inactive) and the GI50 (NCI-H23) was 29.9 µM (inactive). The GI50 (UACC-62) was 25.1 µM (inactive), the GI50 (SN12C) was 31.2 µM (inactive) and the GI50 (OVCAR-5) was > 100 µM (inactive). The GI50 (Malme-3M) was 46.7 µM (inactive), the GI50 (SR) was 25.2 µM (inactive) and the GI50 (OVCAR-4) was 28.5 µM (inactive). The GI50 (SNB-19) was 31.7 µM (inactive), the GI50 (SF-539) was 18.5 µM (inactive) and the GI50 (TK-10) was > 100 µM (inactive). The GI50 (HOP-18) was 16.4 µM (inactive), the GI50 (HCC 2998) was 38.5 µM (inactive) and the GI50 (M14) was > 100 µM (inactive). For the same compound, the GI50 (A549) was > 100 µM (inactive), the GI50 (UACC-257) was > 100 µM (inactive) and the GI50 (A498) was 44.6 µM (inactive). For the same compound, the GI50 (SK-MEL-28) was 54.5 µM (inactive), the GI50 (UO-31) was 34.5 µM (inactive) and the GI50 (EKVX) was 65 µM (inactive). For the same compound, the GI50 (NCI-H460) was 98.9 µM (inactive), the GI50 (RPMI-8226) was 29.8 µM (inactive) and the GI50 (786-0) was 50.4 µM (inactive). The GI50 (OVCAR-3) was 21.5 µM (inactive), the GI50 (HOP-62) was 22.1 µM (inactive) and the GI50 (DMS-273) was 40.6 µM (inactive). The GI50 (HL-60) was 22.2 µM (inactive), the GI50 (SF-268) was 23.8 µM (inactive) and the GI50 (XF498) was 31.4 µM (inactive). For the same compound, the GI50 (LOX IMVI) was 19.6 µM (inactive), the GI50 (DMS-114) was 27.1 µM (inactive) and the GI50 (SF-295) was 73.3 µM (inactive). The GI50 (OVCAR-8) was 19.3 µM (inactive), the GI50 (COLO 205) was 83 µM (inactive) and the GI50 (HT-29) was 49.7 µM (inactive). The GI50 (RXF 393) was 29 µM (inactive), the GI50 (HCT-116) was 53.8 µM (inactive) and the GI50 (LXFL 529) was 31.3 µM (inactive). For the same compound, the GI50 (CAKI-1) was 54.2 µM (inactive).

For `O=c1oc2ccccc2c(O)c1C(C/C(CCN1CCCC1)=N\Nc1ccccc1)c1ccccc1` (stereo unspecified), the GI50 (SK-OV-3) was 94.4 µM (inactive), the GI50 (NCI-H522) was 51.2 µM (inactive) and the GI50 (K562) was 46.2 µM (inactive). For the same compound, the GI50 (DLD-1) was 99.5 µM (inactive), the GI50 (SK-MEL-2) was 51.3 µM (inactive) and the GI50 (KM-20L2) was > 100 µM (inactive). The GI50 (SK-MEL-5) was 46.3 µM (inactive), the GI50 (SNB-75) was > 100 µM (inactive) and the GI50 (ACHN) was 54.8 µM (inactive). For the same compound, the GI50 (U-251) was 78.2 µM (inactive), the GI50 (HOP-92) was 16.3 µM (inactive) and the GI50 (KM12) was 60.5 µM (inactive). The GI50 (SNB-78) was > 100 µM (inactive), the GI50 (M19-MEL) was 61.2 µM (inactive) and the GI50 (NCI-H226) was 71.9 µM (inactive). The GI50 (NCI-H23) was 57.3 µM (inactive), the GI50 (UACC-62) was 76 µM (inactive) and the GI50 (SN12C) was 74.6 µM (inactive). For the same compound, the GI50 (OVCAR-5) was > 100 µM (inactive), the GI50 (Malme-3M) was 78.5 µM (inactive) and the GI50 (SW-620) was 44.6 µM (inactive). The GI50 (SR) was 31.2 µM (inactive), the GI50 (OVCAR-4) was 97.7 µM (inactive) and the GI50 (CCRF-CEM) was 27.9 µM (inactive). The GI50 (SNB-19) was 69.5 µM (inactive), the GI50 (SF-539) was 88.9 µM (inactive) and the GI50 (TK-10) was > 100 µM (inactive). For the same compound, the GI50 (HOP-18) was 91.8 µM (inactive), the GI50 (HCC 2998) was 23.6 µM (inactive) and the GI50 (M14) was 93.1 µM (inactive). For the same compound, the GI50 (A549) was > 100 µM (inactive), the GI50 (UACC-257) was 77.8 µM (inactive) and the GI50 (IGROV-1) was > 100 µM (inactive). The GI50 (A498) was > 100 µM (inactive), the GI50 (UO-31) was 53.5 µM (inactive) and the GI50 (EKVX) was > 100 µM (inactive). The GI50 (NCI-H460) was 70.8 µM (inactive), the GI50 (RPMI-8226) was 27.1 µM (inactive) and the GI50 (786-0) was > 100 µM (inactive). The GI50 (OVCAR-3) was 53.5 µM (inactive), the GI50 (HOP-62) was 94.2 µM (inactive) and the GI50 (HCT-15) was 52.2 µM. For the same compound, the GI50 (HL-60) was 24.2 µM (inactive), the GI50 (SF-268) was > 100 µM (inactive) and the GI50 (XF498) was > 100 µM (inactive). For the same compound, the GI50 (LOX IMVI) was 55.6 µM (inactive), the GI50 (SF-295) was 55.7 µM (inactive) and the GI50 (OVCAR-8) was > 100 µM (inactive). For the same compound, the GI50 (HT-29) was 62.8 µM (inactive), the GI50 (RXF 393) was 32.7 µM (inactive) and the GI50 (HCT-116) was 82.6 µM (inactive). For the same compound, the GI50 (LXFL 529) was 84.5 µM (inactive) and the GI50 (CAKI-1) was > 100 µM (inactive).
